Data taken from patent US20250296937A1, “CYCLIC BISBENZYL TETRAHYDROISOQUINOLINE COMPOUND, AND PREPARATION METHOD THEREFOR AND USE THEREOF” (Shanghai Institute of Materia Medica, Chinesse Academy of …, priority 2021, published 2025).

Tests used:
Vero E6 cells = test: Cytotoxicity test on Vero E6 cells (CCK8); type: cell-based; conditions: inventors' screening of natural products
Method: In this embodiment, the half toxicity concentration of each embodiment on Vero E6 cells was determined by CCK8 kit analysis (CC50).

[1] = test system: 2019 novel coronavirus (SARS-CoV-2) original strain; test: Replication inhibitory activity against SARS-CoV-2 original strain in Vero E6 cells (qRT-PCR); type: cell-based
[2] = cited from earlier work

COc1cc2c3cc1Oc1c(OC)c(OC)cc4c1[C@H](Cc1ccc(cc1)Oc1cc(ccc1O)C[C@H]3N(C)CC2)N(C)CC4 [Oxyacanthine, oxyacanthine, reference compound]
cytotoxicity (background statement) (Vero E6 cells): high cytotoxicity
antiviral activity against novel coronaviruses (background statement) [1]: weak antiviral activity
solubility in ethanol, chloroform, ether, dilute acid ([2]; ethanol, chloroform, ether, dilute acid): soluble
solubility in water ([2]; water): almost insoluble
